Measurements reported in US10526646B2, “Chromogenic peroxidase substrates” (Dako Denmark A/S, priority 2015, dated 2020).
≈ marks a conversion by molar mass, not a printed value.

Key:
[1] = target: T1, HRP (Armoracia rusticana, UniProt P00433); assay: IHC staining of FFPE human tissues and Her2 control cell lines, Envision+ Dual link HRP visualization, DAB as reference; set-up: species or system horse radish; conditions: for colour of IHC stain / stain intensity and crispness compared with DAB: tested in 0.4 to 1 mM; for stain intensity and crispness compared with DAB: low and medium expression targets
T1 construct: purchased Dako K4061
T1 sequence (P00433 31-338): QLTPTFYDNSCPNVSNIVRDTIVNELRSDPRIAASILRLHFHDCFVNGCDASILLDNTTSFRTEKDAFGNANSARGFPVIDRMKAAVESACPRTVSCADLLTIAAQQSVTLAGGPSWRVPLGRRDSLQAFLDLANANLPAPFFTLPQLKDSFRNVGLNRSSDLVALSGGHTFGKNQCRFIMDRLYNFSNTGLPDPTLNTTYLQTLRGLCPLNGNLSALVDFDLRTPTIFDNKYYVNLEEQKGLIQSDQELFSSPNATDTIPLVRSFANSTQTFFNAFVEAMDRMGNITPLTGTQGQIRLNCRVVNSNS

[2] = target: T1, HRP; assay: Fast CISH on human tissue slides, antiFITC-HRP; set-up: species or system horse radish; conditions: 1 mM in substrate buffer pH 6.8, 0.003% hydrogen peroxide, 5 min
[3] = UV-VIS absorbance maxima of chromogenic conjugates and mixtures; assay type: physicochemical
Protocol: “Spectrally narrow” refers to a chromogen having less that 50 nm broadness at its maximum absorbance at half peak height by UV-VIS spectroscopy, measured in +99% water at pH, 6-8 in 10 μM concentration. A “magenta chromogen” is a spectrally narrow chromogen with peak absorbance between 525 and 530 nm, measured in +99% water at pH, 6.0-8.0 in 10 μM concentration. A “greenish-yellow chromogen” is a chromogen with peak absorbance below 475 nm and less than 10% absorbance at 530 nm or above relative to the peak absorbance, measured in +99% water at pH, 6.0-8.0 in 10 μM concentration. A “yellow chromogen” is a chromogen with peak absorbance below 505 nm and less than 10% absorbance at 530 nm or above relative to the peak absorbance, measured in +99% water at pH, 6.0-8.0 in 10 μM concentration. A “cyan chromogen” is a chromogen having maximal absorbance above 615 nm and less than 10% relative absorbance at any wavelength between 530 and 400 nm relative to the peak absorbance, measured in +99% water at pH, 6.0-8.0 m 10 μM concentration. An “orange chromogen” is a “spectrally narrow” chromogen that has maximum absorbance between 495 and 520 nm, measured in +99% water at pH, 6-8 in 10 μM concentration. A “dichroic chromogen” is a chromogen that has at least two absorbance maxima, separated by a local minimum at least 50 nm wide and one further global minimum between 390 and 700 nm measured in water between pH 6 and 8.

[4] = target: T1, HRP; assay: Tissue staining with mixtures of chromogens in chromogen buffer; set-up: species or system horse radish
[5] = target: T1, HRP; assay: Triple immunohistochemical staining (Ki67, CD20, Her2) on Dako Autostainer; set-up: species or system horse radish; conditions: 0.5 mM conjugate, 50 mM imidazole:HCl pH 6.8, 0.003% hydrogen peroxide, 2.5% NMP, 5 min
Protocol: The exemplary triple staining method employed DAB in combination with Compounds 2 and 8, on a Dako Autostainer at room temperature. The steps of the method included: • 1. Blocking of endogenous peroxidase with peroxidase block (Dako S2023), 5 min. • 2. antiKi67 RTU antibody (Dako IR626), 20 mm • 3. Envision+dual Link HRP (Dako K4061), 20 min • 4. DAB (Dako K3468) 5 min. • 5. HRP quenching with peroxidase block (Dako S2023) with addition of 5 mg/mL alphacyano cinnamic acid, 5 min. • 6. antiCD20cy RTU antibody (Dako IR604), 20 min • 7. Envision+dual Link HRP (Dako K4061), 20 min • 8. 0.5 mM compound 2 in 50 mM imidazole: HCl pH 6.8, 0.003% hydrogen peroxide and 2.5% NMP, 5 min. • 9. HRP quenching with peroxidase block (Dako S2023) with addition of 5 mg/mL alphacyano cinnamic acid, 5 min. • 10. antiHer2 (Dako vial ST301 from HercepTest kit SK001) 20 min. • 11. Envision+dual Link HRP (Dako K4061), 20 min • 12. 0.5 mM compound 8 in 50 mM imidazole: HCl pH 6.8, 0.003% hydrogen peroxide and 2.5% NMP, 5 min. • 13. Counter stain with haematoxylin (Dako S3301)

[6] = Mutagenicity test
[7] = Solubility in substrate buffer as function of percentage of NMP; assay type: physicochemical
Protocol: Only Compound 6 having a piperazine amide stands out by absorbing at 536 nm, around 5 nm above the esters comprising Compounds 2, 13, 14 and 15 all with abs max within 531-533 nm. […] Addition of NMP to the buffer in all cases increased chromogen solubility. See result table below of the solubility of 2, 13 and 15 as function of percentage of NMP as organic co solvent, 0% representing neat aqueous buffer 50 mM imidazole: HCl, pH 6.8, 3% and 10% said percent.

Row | SMILES | IHC staining performance of Rhodamine 6G derivatives with different 4-hydroxy cinnamic acid derivatives ([1]; peroxidase substrate moiety varied) | colour of IHC stain [1] | stain intensity and crispness compared with DAB [1] | staining in the high expression range ([1]; very high expression targets, trained observers) | CISH signals [2] | Absp nm (max) [3] [nm] | intensity compared with DAB ([4]; 0.6 mM in 15 mM imidazole pH 6.8, 4% NMP, 0.1% NP40-Nonidet, 0.01% Benzalkonium chloride, 0.03% hydrogen peroxide) | colour of stain of compound alone ([4]; alone) | stain produced in triple staining [5] | mutagenicity [6] | solubility ([7]; imidazole:HCl buffer (substrate buffer) with 3% NMP, aqueous buffer, 3% NMP in 50 mM imidazole:HCl pH 6.8) [µM] | solubility ([7]; imidazole:HCl buffer (substrate buffer) with 10% NMP, aqueous with cosolvent or surfactant or cyclodextrin, 10% NMP in 50 mM imidazole:HCl pH 6.8) [µM] | solubility ([7]; imidazole:HCl buffer (substrate buffer), 0% NMP, neat aqueous buffer 50 mM imidazole:HCl pH 6.8) [µM]
1 | CC/N=c1\cc2oc3cc(NCC)c(C)cc3c(-c3ccccc3C(=O)OCC(=O)NCCOCCOCCNC(=O)/C=C/c3ccc(O)cc3)c-2cc1C [Compound 2, Rhodamine 6G-L12-Cou] | both strong and crisp stains with no background | red stains | fully matched DAB in intensity and crispness | performed better and more dynamically in the high expression range | large and distinct dots in both Tonsil tissues | 531 | matching DAB in intensity in the low range | changed from bright magenta at low intensities toward more full reds at higher intensities | red Her2 membrane stain | does not have significant mutagenicity | 1200 (≈ 899 µg/mL) | 3600 (≈ 2700 µg/mL) | 1000 (≈ 749 µg/mL)
2 | CCN(CC)c1ccc2c(-c3ccccc3C(=O)N3CCN(CC(=O)NCCOCCOCCNC(=O)/C=C/c4ccc(O)cc4)CC3)c3ccc(=[N+](CC)CC)cc-3oc2c1 [Compound 8, RhodamineB-Pip-L12-Cou] | – | slightly bluish purple stains | more than matched DAB in intensity and crispness | – | – | 567 | – | – | purple CD20 membrane stain | – | – | – | –
